Laboratory results as given in ChEMBL document CHEMBL1133223, “Mechanistic studies on prolyl-4-hydroxylase: the vitamin C requiring uncoupled oxidation” (Bioorg Med Chem Lett, 2000).
Square brackets hold non-standard residues; d marks the D form. Peptide text beside a SMILES is read from it. * marks the point of attachment. ΔPro = O=C(O)[C@@H]1C=CCN1; Cbz = O=C(OCc1ccccc1)*

Legend:
Format in all cases: ADME
[1] = Percent Vmax by incubating with prolyl-4-hydroxylase under standard assay conditions
[2] = Km by incubating with prolyl-4-hydroxylase under standard assay conditions
[3] = V/K by incubating with prolyl-4-hydroxylase under standard assay conditions

For `CCOC(=O)CNC(=O)[C@@H]1C=CCN1C(=O)[C@H](Cc1ccccc1)NC(=O)CNC(=O)OCc1ccccc1` (Cbz-GF[ΔPro]G-OEt), the Vmax [1] was 95% and the Km [2] was 200 µM.
Molecule `O=C(O)CNC(=O)[C@@H]1CCCN1C(=O)[C@@H]1CCCN1` (H-Pro-Pro-Gly-OH) has a Vmax [1] of 100% and a Km [2] of 200 µM.
For `CCOC(=O)CNC(=O)[C@@H]1CCCN1C(=O)[C@H](Cc1ccccc1)NC(=O)CNC(=O)OCc1ccccc1` (Cbz-GFPG-OEt), the Vmax [1] was 30%, the Km [2] was 520 µM and the V/K [3] was 3.4.
